In the test the target is T1, human full-length MKNK1 (Homo sapiens, UniProt Q9BUB5, T385D).
T1 construct: GST (N); purchased Carna Biosciences 02-145; host or cells: insect cells (baculovirus expression system)
The experiment in a line: MKNK1 kinase high ATP assay (TR-FRET). Type of test: biochemical. The conditions noted are these: TR-FRET, high ATP (2 mM final), 15 min preincubation with enzyme, GST-MKNK1 (T344D); read-out: MKNK1 IC50. The procedure: MKNK1 Kinase High ATP Assay
MKNK1-inhibitory activity at high ATP of compounds of the present invention after their preincubation with MKNK1 was quantified employing the TR-FRET-based MKNK1 high ATP assay as described in the following paragraphs.
A recombinant fusion protein of Glutathione-S-Transferase (GST, N-terminally) and human full-length MKNK1 (amino acids 1-424 and T344D of accession number BAA 19885.1), expressed in insect cells using baculovirus expression system and purified via glutathione sepharose affinity chromatography, was purchased from Carna Biosciences (product no 02-145) and used as enzyme. As substrate for the kinase reaction the biotinylated peptide biotin-Ahx-IKKRKLTRRKSLKG (C-terminus in amide form) was used, which can be purchased e.g. from the company Biosyntan (Berlin-Buch, Germany).
For the assay 50 nL of a 100 fold concentrated solution of the test compound in DMSO was pipetted into a black low volume 384 well microtiter plate (Greiner Bio-One, Frickenhausen, Germany), 2 μL of a solution of MKNK1 in aqueous assay buffer [50 mM HEPES pH 7.5, 5 mM MgCl2, 1.0 mM dithiothreitol, 0.005% (v/v) Nonidet-P40 (Sigma)] was added and the mixture was incubated for 15 min at 22° C. to allow pre-binding of the test compounds to the enzyme before the start of the kinase reaction. Then the kinase reaction was started by the addition of 3 μL of a solution of adenosine-tri-phosphate (ATP, 3.3 mM=>final conc. in the 5 μL assay volume is 2 mM) and substrate (0.1 μM=>final conc. in the 5 μL assay volume is 0.06 μM) in assay buffer and the resulting mixture was incubated for a reaction time of 30 min at 22° C. The concentration of MKNK1 was adjusted depending of the activity of the enzyme lot and was chosen appropriate to have the assay in the linear range, typical concentrations were in the range of 0.003 μg/mL. The reaction was stopped by the addition of 5 μL of a solution of TR-FRET detection reagents (5 nM streptavidine-XL665 [Cisbio Bioassays, Codolet, France] and 1 nM anti-ribosomal protein S6 (pSer236)-antibody from Invitrogen [#44921G] and 1 nM LANCE EU-W1024 labeled ProteinG [Perkin-Elmer, product no. AD0071]) in an aqueous EDTA-solution (100 mM EDTA, 0.1% (w/v) bovine serum albumin in 50 mM HEPES pH 7.5).
The resulting mixture was incubated for 1 h at 22° C. to allow the formation of complex between the phosphorylated biotinylated peptide and the detection reagents. Subsequently the amount of phosphorylated substrate was evaluated by measurement of the resonance energy transfer from the Eu-chelate to the streptavidine-XL. Therefore, the fluorescence emissions at 620 nm and 665 nm after excitation at 350 nm were measured in a TR-FRET reader, e.g. a Rubystar (BMG Labtechnologies, Offenburg, Germany) or a Viewlux (Perkin-Elmer). The ratio of the emissions at 665 nm and at […] was taken as the measure for the amount of phosphorylated substrate. The data were normalised (enzyme reaction without inhibitor=0% inhibition, all other assay components but no enzyme=100% inhibition).

From patent US20170197979A1, “BENZOTHIADIAZOLAMINES” (BAYER PHARMA AKTIENGESELLSCHAFT, priority 2014, published 2017) come the findings set out here.

T1 sequence (Q9BUB5 1-424 isoform Q9BUB5-2 T344D): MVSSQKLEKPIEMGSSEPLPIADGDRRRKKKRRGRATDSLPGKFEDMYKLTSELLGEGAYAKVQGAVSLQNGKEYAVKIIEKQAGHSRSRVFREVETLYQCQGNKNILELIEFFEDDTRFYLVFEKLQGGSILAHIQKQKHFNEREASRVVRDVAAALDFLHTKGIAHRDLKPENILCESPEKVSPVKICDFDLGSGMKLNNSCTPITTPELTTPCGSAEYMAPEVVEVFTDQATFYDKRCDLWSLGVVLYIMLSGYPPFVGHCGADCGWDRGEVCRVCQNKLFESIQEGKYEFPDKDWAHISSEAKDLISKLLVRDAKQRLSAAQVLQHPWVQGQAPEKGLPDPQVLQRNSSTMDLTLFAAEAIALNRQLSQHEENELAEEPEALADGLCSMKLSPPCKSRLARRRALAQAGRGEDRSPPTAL

Turning to `CN1CCN(C(=O)[C@H]2CCc3c(sc4ncnc(Nc5ccc6nnsc6c5)c34)C2)CC1` [Example 34, [(7S)-4-(1,2,3-Benzothiadiazol-6-ylamino)-5,6,7,8-tetrahydro[1]benzothieno[2,3-d]pyrimidin-7-yl](4-methylpiperazin-1-yl)methanone], the IC50 is 13 nM.
For the compound `COc1cc2nnsc2cc1Nc1ncnc2sc3c(c12)CC[C@H](C(=O)N(C)C)C3` [Example 35, (7S)-4-[(5-Methoxy-1,2,3-benzothiadiazol-6-yl)amino]-N,N-dimethyl-5,6,7,8-tetrahydro[1]benzothieno[2,3-d]pyrimidine-7-carboxamide], the IC50 turned out to be 1.3 nM.
In the case of `COc1cc2nnsc2cc1Nc1ncnc2sc3c(c12)CC[C@H](C(=O)N(C)CC(C)(C)O)C3` [Example 36, (7S)—N-(2-Hydroxy-2-methylpropyl)-4-[(5-methoxy-1,2,3-benzothiadiazol-6-yl)amino]-N-methyl-5,6,7,8-tetrahydro[1]benzothieno[2,3-d]pyrimidine-7-carboxamide], the IC50 was 0.8 nM.
In the case of `COc1cc2nnsc2cc1Nc1ncnc2sc3c(c12)CC[C@H](C(=O)N(C)C(C)C)C3` [Example 37, (7S)-4-[(5-Methoxy-1,2,3-benzothiadiazol-6-yl)amino]-N-methyl-N-(propan-2-yl)-5,6,7,8-tetrahydro[1]benzothieno[2,3-d]pyrimidine-7-carboxamide], the IC50 worked out at 1.2 nM.
With `CCN(CCO)C(=O)[C@H]1CCc2c(sc3ncnc(Nc4cc5snnc5cc4OC)c23)C1` [Example 38, (7S)—N-Ethyl-N-(2-hydroxyethyl)-4-[(5-methoxy-1,2,3-benzothiadiazol-6-yl)amino]-5,6,7,8-tetrahydro[1]benzothieno[2,3-d]pyrimidine-7-carboxamide], the half-maximal inhibitory concentration (IC50) came out at 1.1 nM.
For `COCCN(C)C(=O)[C@H]1CCc2c(sc3ncnc(Nc4cc5snnc5cc4OC)c23)C1` [Example 39, (7S)-4-[(5-Methoxy-1,2,3-benzothiadiazol-6-yl)amino]-N-(2-methoxyethyl)-N-methyl-5,6,7,8-tetrahydro[1]benzothieno[2,3-d]pyrimidine-7-carboxamide], the half-inhibitory concentration (IC50) worked out at 0.6 nM.
In the case of `COc1cc2nnsc2cc1Nc1ncnc2sc3c(c12)CC[C@H](C(=O)N(C)CCNC(=O)OC(C)(C)C)C3` [Example 40, tert-Butyl {2-[({(7S)-4-[(5-methoxy-1,2,3-benzothiadiazol-6-yl)amino]-5,6,7,8-tetrahydro[1]benzothieno[2,3-d]pyrimidin-7-yl}carbonyl)(methyl)amino]ethyl}carbamate], the 50% inhibitory concentration (IC50) came to 0.8 nM.
For `COc1cc2nnsc2cc1Nc1ncnc2sc3c(c12)CC[C@H](C(=O)N1CC(N(C)C)C1)C3` [Example 41, [3-(Dimethylamino)azetidin-1-yl]{(7S)-4-[(5-methoxy-1,2,3-benzothiadiazol-6-yl)amino]-5,6,7,8-tetrahydro[1]benzothieno[2,3-d]pyrimidin-7-yl}methanone], the half-inhibitory concentration (IC50) is 0.6 nM.
In the case of `COc1cc2nnsc2cc1Nc1ncnc2sc3c(c12)CC[C@H](C(=O)N(C)CC(=O)N(C)C)C3` [Example 42, (7S)—N-[2-(Dimethylamino)-2-oxoethyl]-4-[(5-methoxy-1,2,3-benzothiadiazol-6-yl)amino]-N-methyl-5,6,7,8-tetrahydro[1]benzothieno[2,3-d]pyrimidine-7-carboxamide], the IC50 was determined as 0.8 nM.
As for `COc1cc2nnsc2cc1Nc1ncnc2sc3c(c12)CC[C@H](C(=O)N(C)CCCN(C)C)C3` [Example 43, (7S)—N-[3-(Dimethylamino)propyl]-4-[(5-methoxy-1,2,3-benzothiadiazol-6-yl)amino]-N-methyl-5,6,7,8-tetrahydro[1]benzothieno[2,3-d]pyrimidine-7-carboxamide], the IC50 worked out at 1.7 nM.
Turning to `COc1cc2nnsc2cc1Nc1ncnc2sc3c(c12)CC[C@H](C(=O)N1CC(C#N)C1)C3` [Example 44, 1-({(7S)-4-[(5-Methoxy-1,2,3-benzothiadiazol-6-yl)amino]-5,6,7,8-tetrahydro[1]benzothieno[2,3-d]pyrimidin-7-yl}carbonyl)azetidine-3-carbonitrile], the IC50 came out at 1.7 nM.
Turning to `COc1cc2nnsc2cc1Nc1ncnc2sc3c(c12)CC[C@H](C(=O)N1CC(C)(O)C1)C3` [Example 45, (3-Hydroxy-3-methylazetidin-1-yl){(7S)-4-[(5-methoxy-1,2,3-benzothiadiazol-6-yl)amino]-5,6,7,8-tetrahydro[1]benzothieno[2,3-d]pyrimidin-7-yl}methanone], the IC50 was determined as 1.5 nM.
In the case of `COc1cc2nnsc2cc1Nc1ncnc2sc3c(c12)CC[C@H](C(=O)N1CCC1)C3` [Example 46, Azetidin-1-yl{(7S)-4-[(5-methoxy-1,2,3-benzothiadiazol-6-yl)amino]-5,6,7,8-tetrahydro[1]benzothieno[2,3-d]pyrimidin-7-yl}methanone], the IC50 amounted to 182 nM.
For the compound `COc1cc2nnsc2cc1Nc1ncnc2sc3c(c12)CC[C@H](C(=O)N1CCC(N(C)C)CC1)C3` [Example 47, [4-(Dimethylamino)piperidin-1-yl]{(7S)-4-[(5-methoxy-1,2,3-benzothiadiazol-6-yl)amino]-5,6,7,8-tetrahydro[1]benzothieno[2,3-d]pyrimidin-7-yl}methanone], the 50% inhibitory concentration (IC50) amounted to 7.6 nM.
The figure for `COc1cc2nnsc2cc1Nc1ncnc2sc3c(c12)CC[C@H](C(=O)N1CCC(N(C)CCN(C)C)CC1)C3` [Example 48, (4-{[2-(dimethylamino)ethyl](methyl)amino}piperidin-1-yl){(7S)-4-[(5-methoxy-1,2,3-benzothiadiazol-6-yl)amino]-5,6,7,8-tetrahydro[1]benzothieno[2,3-d]pyrimidin-7-yl}methanone] is 2 nM.
The figure for `COc1cc2nnsc2cc1Nc1ncnc2sc3c(c12)CC[C@H](C(=O)N1CCN(CCN(C)C)CC1)C3` [Example 49, {4-[2-(Dimethylamino)ethyl]piperazin-1-yl}{(7S)-4-[(5-methoxy-1,2,3-benzothiadiazol-6-yl)amino]-5,6,7,8-tetrahydro[1]benzothieno[2,3-d]pyrimidin-7-yl}methanone] is 1.7 nM; for `COc1cc2nnsc2cc1Nc1ncnc2sc3c(c12)CC[C@H](C(=O)N1CCN(C)CC1)C3` [Example 50, {(7S)-4-[(5-Methoxy-1,2,3-benzothiadiazol-6-yl)amino]-5,6,7,8-tetrahydro[1]benzothieno[2,3-d]pyrimidin-7-yl}(4-methylpiperazin-1-yl)methanone] it is 11 nM.
Turning to `COc1cc2nnsc2cc1Nc1ncnc2sc3c(c12)CC[C@H](C(=O)N1CC[C@H](N(C)C)C1)C3` [Example 51, [(3S)-3-(Dimethylamino)pyrrolidin-1-yl]{(7S)-4-[(5-methoxy-1,2,3-benzothiadiazol-6-yl)amino]-5,6,7,8-tetrahydro[1]benzothieno[2,3-d]pyrimidin-7-yl}methanone], the IC50 came to 3.3 nM.
`COc1cc2nnsc2cc1Nc1ncnc2sc3c(c12)CC[C@H](C(=O)N1CC[C@@H](N(C)C)C1)C3` [Example 52, [(3R)-3-(Dimethylamino)pyrrolidin-1-yl]{(7S)-4-[(5-methoxy-1,2,3-benzothiadiazol-6-yl)amino]-5,6,7,8-tetrahydro[1]benzothieno[2,3-d]pyrimidin-7-yl}methanone]: the IC50 was 2.1 nM.
For the compound `COc1cc2nnsc2cc1Nc1ncnc2sc3c(c12)CC[C@H](C(=O)N1C[C@@H]2C[C@H]1CN2C)C3` [Example 53, {(7S)-4-[(5-Methoxy-1,2,3-benzothiadiazol-6-yl)amino]-5,6,7,8-tetrahydro[1]benzothieno[2,3-d]pyrimidin-7-yl}[(1S,4S)-5-methyl-2,5-diazabicyclo[2.2.1]hept-2-yl]methanone], the IC50 worked out at 3.8 nM.
The figure for `COc1cc2nnsc2cc1Nc1ncnc2sc3c(c12)CC[C@H](C(=O)N1CC(N2CCCCC2)C1)C3` [Example 54, {(7S)-4-[(5-Methoxy-1,2,3-benzothiadiazol-6-yl)amino]-5,6,7,8-tetrahydro[1]benzothieno[2,3-d]pyrimidin-7-yl}[3-(piperidin-1-yl)azetidin-1-yl]methanone] is 9.2 nM.

In general, IC50 refers to the concentration that inhibits the measured activity by half.
